Data published in PubChem BioAssay (NCI).
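Following 48 hours of exposure in 96-well plates, responses at five concentrations were used to interpolate endpoints linearly. At the GI50, growth is halved. At the TGI there is no net growth.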 Where a SMILES comes first, the peptide text is derived from it. Bridges are numbered along the chain shown (N, C = ends).

Key:
Assay in all cases: NCI anticancer screen, dose series, 48 h
ACHN renal = tested on: ACHN renal
HOP-62 NSCLC = tested on: HOP-62 NSCLC
IGROV1 ovarian = tested on: IGROV1 ovarian
A498 renal = tested on: A498 renal
U251 CNS = tested on: U251 CNS
HCT-116 colon = tested on: HCT-116 colon
HCC-2998 colon = tested on: HCC-2998 colon
A549 NSCLC = tested on: A549 NSCLC
CAKI-1 renal = tested on: CAKI-1 renal
NCI-H226 lung = tested on: NCI-H226 lung

SMILES | TGI (ACHN renal) | TGI (HOP-62 NSCLC) | TGI (IGROV1 ovarian) | TGI (A498 renal) | TGI (U251 CNS) | TGI (HCT-116 colon) | TGI (HCC-2998 colon) | TGI (A549 NSCLC) | TGI (CAKI-1 renal) | TGI (NCI-H226 lung) | GI50 (HCC-2998 colon) | GI50 (ACHN renal) | GI50 (HOP-62 NSCLC) | GI50 (A549 NSCLC) | GI50 (A498 renal) | GI50 (CAKI-1 renal)
COC1CCC(CO)OO1 (stereo unspecified) | > 100 µM | > 100 µM | 75.8 µM | 72.2 µM | > 100 µM | > 100 µM | – | – | – | – | – | – | – | – | – | –
O=C1OC2(CCCCC2)C(Oc2ccc(Cl)cc2)=C1F | > 100 µM | > 100 µM | > 100 µM | > 100 µM | > 100 µM | > 100 µM | 57 µM | > 100 µM | > 100 µM | – | – | – | – | – | – | –
CN1Cc2ccccc2C2(COc3ccccc3C2=O)C1 (stereo unspecified) | > 100 µM | > 100 µM | > 100 µM | – | > 100 µM | > 100 µM | > 100 µM | > 100 µM | > 100 µM | > 100 µM | – | – | – | – | – | –
N/C(=N\N=C/c1c(O)cc(O)cc1O)NO | – | > 100 µM | > 100 µM | > 100 µM | > 100 µM | > 100 µM | > 100 µM | > 100 µM | > 100 µM | > 100 µM | – | – | – | – | – | –
Cc1cc(NS(=O)(=O)c2ccc(Nc3c4ccccc4nc4c(C(=O)NC(CO)(CO)CO)cccc34)cc2)no1 | > 100 µM | 68.8 µM | > 100 µM | > 100 µM | > 100 µM | – | 55.7 µM | > 100 µM | > 100 µM | – | – | – | – | – | – | –
CC(=O)N1CCOC12N=NC(C)(C)O2 (stereo unspecified) | > 100 µM | > 100 µM | > 100 µM | > 100 µM | > 100 µM | > 100 µM | > 100 µM | > 100 µM | > 100 µM | – | – | – | – | – | – | –
CC(C)=CCNc1ncnc2c1ncn2CCC(=O)O | > 100 µM | > 100 µM | > 100 µM | > 100 µM | > 100 µM | > 100 µM | > 100 µM | > 100 µM | – | > 100 µM | – | – | – | – | – | –
COc1ccc(/C=C/C(=O)c2cc(CN(C)C)c(O)c(CN(C)C)c2)cc1 | > 100 µM | 56.1 µM | > 100 µM | 60.3 µM | > 100 µM | > 100 µM | – | > 100 µM | > 100 µM | > 100 µM | – | – | – | – | – | –
NCCCNCCSP(=O)(O)O | – | > 750 µM | > 750 µM | > 75 µM | > 750 µM | > 750 µM | > 750 µM | > 750 µM | > 750 µM | > 750 µM | – | – | – | – | – | –
C#CC(O)/C=C/C(O)CCCC(O)CC#CC(O)C#CCCCCC(O)/C=C/CCCC(=O)CCCCCCCCCCCCCCCC(O)C(O)C#CC(=O)O (stereo unspecified) | > 25 µM | > 25 µM | > 25 µM | – | > 25 µM | > 25 µM | > 25 µM | > 25 µM | > 25 µM | > 25 µM | – | – | – | – | – | –
C/C(N=NS(=O)(=O)c1c(C)cc(C)cc1C)=C1\C=CC=CN1O | > 100 µM | > 100 µM | > 100 µM | > 100 µM | > 100 µM | > 100 µM | > 100 µM | > 100 µM | > 100 µM | – | – | – | – | – | – | –
COc1ccc(-c2c(/C=N/OCC(=O)O)c3sc4ccccc4n3c2/C=N/OCC(=O)O)cc1 | > 50 µM | > 50 µM | > 50 µM | – | > 50 µM | > 50 µM | > 50 µM | > 50 µM | > 50 µM | – | – | – | – | – | – | –
CSCCC(NC(=O)C(Cc1c[nH]c2ccccc12)NC(=O)CCNC(=O)OC(C)(C)C)C(=O)NC(CC(=O)O)C(=O)NC(Cc1ccccc1)C(N)=O (stereo unspecified) | – | > 50 µM | > 50 µM | > 50 µM | > 50 µM | > 50 µM | > 50 µM | > 50 µM | > 50 µM | > 50 µM | – | – | – | – | – | –
Cc1cc2ccccc2n2c1nc1ccc(O)cc12 | > 10 µM | > 10 µM | > 10 µM | – | > 10 µM | > 10 µM | > 10 µM | > 10 µM | > 10 µM | – | – | – | – | – | – | –
COC(=O)C1CCC(=O)NCCCCC(NC(=O)C(N)CC(=O)O)C(=O)N1 (stereo not drawn) (H-Asp-Lys-Glu-OMe; lactam 2-3; configuration not given here) | > 100 µM | > 100 µM | > 100 µM | – | > 100 µM | > 100 µM | > 100 µM | > 100 µM | > 100 µM | > 100 µM | – | – | – | – | – | –
C=CC(C)(C)/C(=C\CO[Si](C(C)C)(C(C)C)C(C)C)C(=O)N(C)c1ccccc1I | 25.8 µM | 35.8 µM | 30.3 µM | 46 µM | 25 µM | 17 µM | 26 µM | 23.9 µM | 44 µM | – | – | – | – | – | – | –
C=C1c2nc3ccccc3n2C=C(c2ccccc2)N1c1ccc(C)cc1 | > 100 µM | – | > 100 µM | > 100 µM | > 100 µM | > 100 µM | 36.7 µM | > 100 µM | > 100 µM | > 100 µM | – | – | – | – | – | –
C/C(=N\Nc1nc2cc(F)ccc2s1)c1ccccn1 | 1.35 µM | > 21.9 µM | – | > 100 µM | > 33.3 µM | 13.2 µM | – | – | 5.67 µM | – | – | – | – | – | – | –
CCOC(=O)/C=C(/C(=O)OCC)n1cc(C)c(=O)n(Cc2cn(CCCCOC(C)=O)nn2)c1=O | 16.7 µM | > 100 µM | 29.6 µM | – | 45.3 µM | 65 µM | 36.6 µM | 56.1 µM | 6.46 µM | 37.1 µM | – | – | – | – | – | –
COc1ccc(Cn2c(=O)c(OS(=O)(=O)C(F)(F)F)c(C)c3cc4ccccc4cc32)cc1 | > 100 µM | > 100 µM | > 100 µM | – | > 100 µM | > 100 µM | > 100 µM | > 100 µM | > 100 µM | > 100 µM | – | – | – | – | – | –
COc1cccc(C2C(C#N)=C(N)Oc3cc(OCCCCCC[P+](c4ccccc4)(c4ccccc4)c4ccccc4)ccc32)c1 (stereo unspecified) | 4.92 µM | 4.16 µM | – | 2.45 µM | – | – | 1.68 µM | 4.51 µM | 3.48 µM | – | 0.493 µM | 2.04 µM | 1.62 µM | 1.53 µM | 1.03 µM | 1.68 µM
O=S1(=O)N=C(SCc2c[nH]c3ccccc23)N(c2ccccc2)c2ccncc21 | > 100 µM | > 100 µM | – | 82.2 µM | > 100 µM | > 100 µM | > 100 µM | > 100 µM | > 100 µM | > 100 µM | – | – | – | – | – | –
CC1(C)CC(=O)C2=C(C1)NC(=S)C(C#N)C2c1ccccc1 (stereo unspecified) | > 100 µM | > 100 µM | > 100 µM | – | > 100 µM | > 100 µM | > 100 µM | > 100 µM | > 100 µM | > 100 µM | – | – | – | – | – | –
